The text below walks through data of EP0073849A1, “Novel phenyl-1,2,3,4-tetrahydrocarbazoles, their preparation and pharmaceutical compositions containing them” (priority 1981, dated 1983).

In general, ED50 refers to the dose at which the effect has come halfway, by size or by number of responders. As usually defined, the NOAEL is the highest dose or exposure tested at which no adverse effect was seen.

For one data set, the system named is rat muricide. Briefly: rat muricide test. It counts as in vivo. Conditions: ip, intraperitoneal administration. The source says: In the rat muricide test (based on the method of Horovitz et al., Int. J.
Data set [1] has as its system abnormal behaviour of beagles. Nature of the data set: improvement of abnormal behaviour in beagles. It counts as in vivo. The settings on record: Canis lupus familiaris, po; read-out: MED for improvement of abnormal behaviour in beagles.
Data set [2] relates to behaviour, neurologic function, autonomic function. Conditions: rat, in vivo, ip.
In data set [3] the test system is beagles with normal behaviour. Briefly: in vivo. The settings on record: dog, po.
Data set [4] can be described thus: in vivo. The settings on record: dog, po. Set-up: species or system beagles.
Data set [5] in a line: in vivo. The settings on record: rat, ip.

In the data set with rat muricide, `CN(C)CCC=C1c2ccccc2CCc2ccccc21` [Amitriptyline] displayed a 50% effective dose (ED50) of 5.2 mg/kg.

As to `CN(C)CCCN1c2ccccc2CCc2ccccc21` [Imipramine], the minimal effective dose in data set [1] was found to be 10 mg/kg. For the same compound, the “dosage levels that cause changes in behaviour, in neurologic function or in autonomic function” value in data set [2] is on record as 30 mg./kg. Besides, in data set [3], the “dose causing decreased motor activity and passivity” value was determined as 30 mg/kg; the “dose causing decreased motor activity and passivity as multiple of the MED” value is recorded as “three”; the “dose causing tremors and mydriasis” value came to 10 mg/kg. This compound also came in with an ED50 with rat muricide of 6.4 mg/kg.

For `COc1ccc2[nH]c3c(c2c1)CC(c1ccccc1)CC3` (stereo not drawn) [Test compound, 6-Methoxy-3-phenyl-1,2,3,4-tetrahydrocarbazole], the minimal effective dose in data set [1] came out at 10 mg/kg. Moreover, in data set [2], the “dosage levels that cause changes in behaviour, in neurologic function or in autonomic function” value was 100-1000 mg./kg. Further, the NOAEL at 6 h in the data set “in vivo [4]” was more than 60 mg/kg. The compound also came in with an ED50 with rat muricide of 1.7 mg/kg. Besides, the selectivity ratio in the data set “in vivo [5]” is 50 to 500.
